From US7491721B2, “Antimycobacterial pharmaceutical composition” (priority 2004, dated 2009)

Columns and labels:
[1] = Pharmacokinetics of the combination with rifampicin and pyrazinamide in mice; details: mouse, in vivo, po; for half-life: T½
sensitive strain of MTB = test: Murine model of pulmonary tuberculosis, mice infected with sensitive strain; format: in vivo, Mycobacterium tuberculosis; details: for dose giving 2 log reduction in the organs: animals infected with sensitive strain
[2] = Preliminary pharmacokinetics of compound of formula (I) in mice; details: mouse, in vivo
Procedure: (§2) Preliminary Pharmacokinetics studies of the compound of formula (I) was performed in mice and dog to determine bioavailibility and serum levels achieved and maintained by the compounds.

[3] = Acute toxicity by oral route in mice; details: mouse, in vivo
Procedure: (§1) Acute toxicity of the compound of formula (I) was determined in rodents by oral route.

[4] = Acute toxicity by oral route in rats; details: rat, in vivo
Procedure: as §1

[5] = tested on: bacterial strains used in the Ames Mutagenicity test; test: Ames Mutagenicity test; format: cell-based; details: all the bacterial strains used
in vivo [6] = details: dog, po, 12.5 mg
Procedure: as §2

in vivo [7] = details: mouse, po, 25 mg/kg
[8] = Preliminary pharmacokinetics of compound of formula (I) in dog; details: serum, 12.5 mg
Procedure: as §2

[9] = given together without (I): RIF 20.0 + PYR 150.0 mg/kg
[10] = given together: (I) 12.5 + RIF 20.0 + PYR 150.0 mg/kg
[11] = combination study, one month, doses mg/kg: (I) 25.0 where present, INH 25.0, RIF 20.0, PYR 150.0, ETH 100.0
[12] = combination study, three months, doses mg/kg: (I) 25.0 where present, INH 25.0, RIF 20.0, PYR 150.0, ETH 100.0
[13] = combination study, two months, doses mg/kg: (I) 25.0 where present, INH 25.0, RIF 20.0, PYR 150.0, ETH 100.0
[14] = monotherapy 12.5 mg/kg, 8 Weeks Treatment (two months)
[15] = monotherapy 12.5 mg/kg, 12 Weeks Treatment (three months)
[16] = monotherapy 12.5 mg/kg, one month of treatment
[17] = monotherapy 25 mg/kg, 8 Weeks Treatment (two months)
[18] = monotherapy 25 mg/kg, 12 Weeks Treatment (three months)
[19] = monotherapy 25 mg/kg, one month of treatment
[20] = monotherapy 50 mg/kg, 8 Weeks Treatment (two months)
[21] = monotherapy 50 mg/kg, 12 Weeks Treatment (three months)
[22] = monotherapy 50 mg/kg, one month of treatment
[23] = 12.5 mg/kg, (I) alone 12.5 mg/kg

For `NC(=O)c1cnccn1` [PYR, Pyrazinamide], the AUC [1, 9] was 649000 ng·h/mL, the AUC [1, 10] was 477000 ng·h/mL and the Cmax [1, 9] was 138000 ng/mL. The Cmax [1, 10] was 146000 ng/mL, the Tmax [1, 9] was 1.5 h and the Tmax [1, 10] was 1 h. For the same compound, the half-life [1, 9] was 2.09 h and the half-life [1, 10] was 2.05 h.
With `Cc1c(CN2CCN(c3cccc(C(F)(F)F)c3)CC2)cc(-c2ccccc2)n1NC(=O)c1ccncc1` [Compound of formula (I)] the “dose giving 2 log reduction in the organs” value (sensitive strain of MTB) was 12.5 mg/kg, the “Mean Log10CFU in organs of mice infected with sensitive strain of MTB, Lung” value (“Mean Log10CFU in organs of mice infected … Lung” below) (sensitive strain of MTB; [11]) was 3.11 ± 0.38 Log10CFU and the “Mean Log10CFU in organs of mice infected with sensitive strain of MTB, Spleen” value (shortened to “Mean Log10CFU in organs … Spleen”) (sensitive strain of MTB; [11]) was 2.42 ± 0.4 Log10CFU. For the same compound, the “Mean Log10CFU in organs of mice infected … Lung” value (sensitive strain of MTB; [12]) was 0.82 ± 0.91 Log10CFU, the “Mean Log10CFU in organs … Spleen” value (sensitive strain of MTB; [12]) was 1.09 ± 0.83 Log10CFU and the “Mean Log10CFU in organs of mice infected … Lung” value (sensitive strain of MTB; [13]) was 1.86 ± 0.94 Log10CFU. For the same compound, the “Mean Log10CFU in organs … Spleen” value (sensitive strain of MTB; [13]) was 2.60 ± 0.45 Log10CFU, the “Mean Log10CFU in organs of mice infected … Lung” value (sensitive strain of MTB; [14]) was 3.44 ± 0.69 Log10CFU and the “Mean Log10CFU in organs … Spleen” value (sensitive strain of MTB; [14]) was 2.75 ± 0.63 Log10CFU. The “Mean Log10CFU in organs of mice infected … Lung” value (sensitive strain of MTB; [15]) was 2.76 ± 0.53 Log10CFU, the “Mean Log10CFU in organs … Spleen” value (sensitive strain of MTB; [15]) was 2.68 ± 0.27 Log10CFU and the “Mean Log10CFU in organs of mice infected … Lung” value (sensitive strain of MTB; [16]) was 2.5 ± 0.35 Log10CFU. The “Mean Log10CFU in organs … Spleen” value (sensitive strain of MTB; [16]) was 2.89 ± 0.32 Log10CFU, the “Mean Log10CFU in organs of mice infected … Lung” value (sensitive strain of MTB; [17]) was 2.89 ± 0.73 Log10CFU and the “Mean Log10CFU in organs … Spleen” value (sensitive strain of MTB; [17]) was 2.37 ± 0.68 Log10CFU. The “Mean Log10CFU in organs of mice infected … Lung” value (sensitive strain of MTB; [18]) was 1.71 ± 1.24 Log10CFU, the “Mean Log10CFU in organs … Spleen” value (sensitive strain of MTB; [18]) was 1.63 ± 0.98 Log10CFU and the “Mean Log10CFU in organs of mice infected … Lung” value (sensitive strain of MTB; [19]) was 2.3 ± 0.63 Log10CFU. The “Mean Log10CFU in organs … Spleen” value (sensitive strain of MTB; [19]) was 2.42 ± 0.15 Log10CFU, the “Mean Log10CFU in organs of mice infected … Lung” value (sensitive strain of MTB; [20]) was 2.20 ± 0.56 Log10CFU and the “Mean Log10CFU in organs … Spleen” value (sensitive strain of MTB; [20]) was 2.17 ± 0.46 Log10CFU. For the same compound, the “Mean Log10CFU in organs of mice infected … Lung” value (sensitive strain of MTB; [21]) was 1.46 ± 1.06 Log10CFU, the “Mean Log10CFU in organs … Spleen” value (sensitive strain of MTB; [21]) was 1.56 ± 1.12 Log10CFU and the “Mean Log10CFU in organs of mice infected … Lung” value (sensitive strain of MTB; [22]) was 2.1 ± 0.36 Log10CFU. The “Mean Log10CFU in organs … Spleen” value (sensitive strain of MTB; [22]) was 2.28 ± 0.38 Log10CFU, the AUC(0-t) ([2]; po, 25 mg) was 6880 ng·h/mL and the Cmax ([2]; po, 25 mg) was 2680 ng/mL. It also gave a Tmax ([2]; po, 25 mg) of 2 h, a half-life ([2]; po, 25 mg) of 3.41 h and an AUC(0-t) ([2]; Mice, 12.5 mg (Oral), read-out: AUClast) of 2210 ng·h/mL. For the same compound, the Cmax ([2]; Mice, 12.5 mg (Oral), read-out: Cmax) was 660 ng/mL, the half-life ([2]; Mice, 12.5 mg (Oral), read-out: T1/2 (converted)) was 5.34 h and the Tmax ([2]; Mice, 12.5 mg (Oral), read-out: Tmax) was 1.5 h. The LD50 [3] was 700 mg/kg, the LD50 [4] was 793 mg/kg and the “mutagenicity in the Ames Mutagenicity test” value [5] was “non mutagenic”. The half-life (in vivo [6]) was 5.07 h, the AUC (in vivo [7]) was 6880 ng·h/mL and the Cmax (in vivo [7]) was 2680 ng/mL. For the same compound, the Tmax (in vivo [7]) was 2 h, the half-life (in vivo [7]) was 3.41 h and the AUC(0-t) ([8]; iv) was 20000 ng·h/mL. The Cmax ([8]; iv) was 8650 ng/mL, the Tmax ([8]; iv) was 3.48 h and the AUC(0-t) ([8]; po) was 10600 ng·h/mL. The Cmax ([8]; po) was 3380 ng/mL, the Tmax ([8]; po) was 0.75 h and the bioavailability ([8]; po) was 56.4%. It also gave an AUC [1, 23] of 2210 ng·h/mL, a Cmax [1, 23] of 660 ng/mL and a Tmax [1, 23] of 1.5 h. It also gave a half-life [1, 23] of 5.34 h, an AUC [1, 10] of 36500 ng·h/mL and a Cmax [1, 10] of 7580 ng/mL. For the same compound, the Tmax [1, 10] was 2.12 h and the half-life [1, 10] was 6.73 h.
In the case of `NNC(=O)c1ccncc1` [Isoniazid], the “dose giving 2 log reduction in the organs” value (sensitive strain of MTB) is reported as at least 25 mg/kg, the “Mean Log10CFU in organs of mice infected … Lung” value (sensitive strain of MTB; [11]) is reported as 3.20 ± 0.45 Log10CFU and the “Mean Log10CFU in organs … Spleen” value (sensitive strain of MTB; [11]) is reported as 2.78 ± 0.30 Log10CFU. For the same compound, the “Mean Log10CFU in organs of mice infected … Lung” value (sensitive strain of MTB; [12]) was 1.20 ± 0.98 Log10CFU, the “Mean Log10CFU in organs … Spleen” value (sensitive strain of MTB; [12]) was 1.35 ± 1.09 Log10CFU and the “Mean Log10CFU in organs of mice infected … Lung” value (sensitive strain of MTB; [13]) was 1.91 ± 0.9 Log10CFU. The “Mean Log10CFU in organs … Spleen” value (sensitive strain of MTB; [13]) was 2.43 ± 0.39 Log10CFU, the “Mean Log10CFU in organs of mice infected … Lung” value (sensitive strain of MTB; [14]) was 3.9 ± 0.45 Log10CFU and the “Mean Log10CFU in organs … Spleen” value (sensitive strain of MTB; [14]) was 3.73 ± 0.52 Log10CFU. For the same compound, the “Mean Log10CFU in organs of mice infected … Lung” value (sensitive strain of MTB; [15]) was 3.94 ± 0.28 Log10CFU, the “Mean Log10CFU in organs … Spleen” value (sensitive strain of MTB; [15]) was 3.9 ± 0.37 Log10CFU and the “Mean Log10CFU in organs of mice infected … Lung” value (sensitive strain of MTB; [16]) was 4.56 ± 0.24 Log10CFU. The “Mean Log10CFU in organs … Spleen” value (sensitive strain of MTB; [16]) was 4.93 ± 0.42 Log10CFU, the “Mean Log10CFU in organs of mice infected … Lung” value (sensitive strain of MTB; [17]) was 3.01 ± 0.68 Log10CFU and the “Mean Log10CFU in organs … Spleen” value (sensitive strain of MTB; [17]) was 2.68 ± 0.89 Log10CFU. The “Mean Log10CFU in organs of mice infected … Lung” value (sensitive strain of MTB; [18]) was 3.06 ± 0.83 Log10CFU, the “Mean Log10CFU in organs … Spleen” value (sensitive strain of MTB; [18]) was 2.41 ± 0.69 Log10CFU and the “Mean Log10CFU in organs of mice infected … Lung” value (sensitive strain of MTB; [19]) was 3.19 ± 0.6 Log10CFU. For the same compound, the “Mean Log10CFU in organs … Spleen” value (sensitive strain of MTB; [19]) was 3.08 ± 0.44 Log10CFU, the “Mean Log10CFU in organs of mice infected … Lung” value (sensitive strain of MTB; [20]) was 2.45 ± 0.60 Log10CFU and the “Mean Log10CFU in organs … Spleen” value (sensitive strain of MTB; [20]) was 2.30 ± 0.38 Log10CFU. The “Mean Log10CFU in organs of mice infected … Lung” value (sensitive strain of MTB; [21]) was 2.07 ± 0.33 Log10CFU, the “Mean Log10CFU in organs … Spleen” value (sensitive strain of MTB; [21]) was 2.68 ± 0.36 Log10CFU and the “Mean Log10CFU in organs of mice infected … Lung” value (sensitive strain of MTB; [22]) was 2.97 ± 0.46 Log10CFU. For the same compound, the “Mean Log10CFU in organs … Spleen” value (sensitive strain of MTB; [22]) was 2.89 ± 0.27 Log10CFU.
For `CO[C@H]1/C=C/O[C@@]2(C)Oc3c(C)c(O)c4c(O)c(c(/C=N/N5CCN(C)CC5)c(O)c4c3C2=O)NC(=O)/C(C)=C\C=C\[C@H](C)[C@H](O)[C@@H](C)[C@@H](O)[C@@H](C)[C@H](OC(C)=O)[C@@H]1C` [Rifampicin], the “Mean Log10CFU in organs of mice infected … Lung” value (sensitive strain of MTB; [11]) was 2.75 ± 0.36 Log10CFU, the “Mean Log10CFU in organs … Spleen” value (sensitive strain of MTB; [11]) was 2.78 ± 0.42 Log10CFU and the “Mean Log10CFU in organs of mice infected … Lung” value (sensitive strain of MTB; [12]) was 0.84 ± 1.10 Log10CFU. The “Mean Log10CFU in organs … Spleen” value (sensitive strain of MTB; [12]) was 1.21 ± 0.83 Log10CFU, the “Mean Log10CFU in organs of mice infected … Lung” value (sensitive strain of MTB; [13]) was 1.84 ± 0.95 Log10CFU and the “Mean Log10CFU in organs … Spleen” value (sensitive strain of MTB; [13]) was 2.40 ± 0.7 Log10CFU. It also gave an AUC [1, 9] of 148000 ng·h/mL, an AUC [1, 10] of 195000 ng·h/mL and a Cmax [1, 9] of 15200 ng/mL. It also gave a Cmax [1, 10] of 19300 ng/mL, a Tmax [1, 9] of 2.3 h and a Tmax [1, 10] of 3.25 h.
